Assay results from US20260285853A1, “COMPOUNDS AND METHODS FOR MODULATING SPLICING” (REMIX THERAPEUTICS INC., priority 2023, published 2026).

Key:
Type in all cases: cell-based
HTT mRNA [1] = experiment: Splicing RT-qPCR assay, canonical (CJ) and alternative (AJ) junction mRNA, K562 cells; settings: Homo sapiens, K562.3 cells, 24 hours; for AC50: read-out: HTT AJ (AC50, increase in AJ mRNA); for IC50: read-out: HTT CJ (IC50, decrease in CJ mRNA)
Description: (§1) Compounds described herein were used to modulate RNA transcript abundance in cells. The expression of a target mRNA was measured by detecting the formation of an exon-exon junction in the canonical transcript (CJ). A compound mediated exon-inclusion event was detected by observing an increase in formation of a new junction with an alternative exon (AJ). Real-time qPCR assays were used to detect these splicing switches and interrogate the potency of various compounds towards different target genes. A high-throughput real time quantitative PCR (RT-qPCR) assay was developed to measure these two isoforms of the mRNA (CJ and AJ) for exemplary genes, such as HTT, SMN2, and MYB, together with a control housekeeping gene, GAPDH or GUSB or PPIA, used for normalization. Briefly, the A673 or K562 cell line was treated with various compounds described herein (e.g., compounds of Formula (I)). After treatment, the levels of the HTT, MYB, or SMN2 mRNA targets were determined from each sample of cell lysate by cDNA synthesis followed by qPCR.
(§2) • Cells-to-CT 1-step kit: ThermoFisher A25602, Cells-to-CT lysis reagent: ThermoFisher 4391851C, TaqMan™ Fast Virus 1-Step Master Mix: ThermoFisher 4444436 • GAPDH: VIC-PL, ThermoFisher 4326317E (Assay: Hs99999905_m1)—used for K562/suspension cell lines • GUSB: VIC-PL, ThermoFisher 4326320E (Assay: Hs99999908_m1)—used for K562/suspension cell lines • PPIA: VIC-PL, ThermoFisher 4326316E (Assay: Hs99999904_m1)—used for A673/adherent cell lines
(§3) The K562 cell line was cultured in IMDM with 10% FBS. For K562, cells were diluted with full growth media and plated in either a 96-well plate (50,000 cells in 50 uL media per well) or a 384-well plate (8,000-40,000 cells in 45 uL media per well). An 11-point 3-fold serial dilution of the compounds were made in DMSO then diluted in media in an intermediate plate. Compound was transferred from the intermediate plate to the cell plate with the top dose at a final concentration of 10 uM in the well. Final DMSO concentration was kept at or below 0.25%. Final volume was 100 uL for 96-well plate and 50 uL for 384-well plate. The cell plate was then placed in an incubator at 37° C. with 5% CO2 for 24 hours.
(§4) The cells were then gently washed with 50 uL-100 uL cold PBS before proceeding to addition of lysis buffer. 30 uL-50 uL of room temperature lysis buffer with DNAse I (and optionally RNAsin) was added to each well. Cells were shaken/mixed thoroughly at room temperature for 5-10 minutes for lysis to take place and then 3 uL-5 uL of room temperature stop solution was added and wells were shaken/mixed again. After 2-5 minutes, the cell lysate plate was transferred to ice for RT-qPCR reaction setup. The lysates could also be frozen at −80° C. for later use.
(§5) In some cases, a direct lysis buffer was used. An appropriate volume of 3× lysis buffer (10 mM Tris, 150 mM NaCl, 1.5%-2.5% Igepal and 0.1-1 U/uL RNAsin, pH 7.4) was directly added to either K562 or A673 cells in media and mixed by pipetting 3 times. The plates were then incubated at room temperature with shaking/rocking for 20-50 minutes to allow for lysis to take place. After this time, the cell lysate plate was transferred to ice to set up for the RT-qPCR reactions. The lysates could also be frozen at −80° C. for later use.
(§6) To set up 10 uL RT-qPCR reactions, cell lysates were transferred to 384-well qPCR plates containing the master mix according to the table below. The plates were sealed, gently vortexed, and spun down before the run. The volumes were adjusted accordingly in some instances where the reaction was carried in 20 uL. The table below summarizes the components of the RT-qPCR reactions:
(§7) The RT-qPCR reaction was performed using a QuantStudio (ThermoFisher) under the following fast cycling conditions. All samples and standards were analyzed at least in duplicate. In some instances, bulk room temperature (RT) step of 5-10 minutes was completed for all plates before proceeding with qPCR. […]

MYB mRNA [2] = experiment: as above; settings: Homo sapiens, K562.3 cells, 24 hours; for AC50: read-out: MYB AJ (AC50, increase in AJ mRNA); for IC50: read-out: MYB CJ (IC50, decrease in CJ mRNA)
Description: as §1, §2, §3, §4, §5, §6, §7

MYB mRNA [3] = experiment: Splicing RT-qPCR assay (THP), Table 2A; settings: Table 2A (THP); for AC50: AJ mRNA increase, read-out: MYB AJ (increase in alternative junction mRNA, AC50); for IC50: CJ mRNA decrease, read-out: MYB CJ (decrease in canonical junction mRNA, IC50)
HTT mRNA [4] = experiment: Gene panel canonical junction qPCR assay, decrease in CJ mRNA, Table 3; settings: decrease in canonical junction (CJ) mRNA, gene panel qPCR, Table 3
Procedure, shortened: (§8)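 Canonical exon-junction (CJ) transcript measured by 5′ nuclease RT-qPCR, normalized to GAPDH, GUSB or PPIA and to DMSO control (2^(−ΔΔCt)). A673 or K562 cells treated 24 h at 37° C with an 11-point 3-fold dilution series, top 10 uM, DMSO ≤0.25%. IC50 from 4-parameter logistic fit of percentage CJ decrease.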

MYB mRNA [5] = experiment: as above; settings: decrease in canonical junction (CJ) mRNA, gene panel qPCR, Table 3
Procedure, shortened: as §8

SMN2 mRNA = experiment: as above; settings: decrease in canonical junction (CJ) mRNA, gene panel qPCR, Table 3
Procedure, shortened: as §8

[6] = tested on: SH-SY5Y (human neuroblastoma) cells; experiment: Cell viability, Cell Titer Glo 2.0 assay; settings: read-out: Viability SHSY5Y.3 GI50
Procedure, shortened: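 SH-SY5Y cells were exposed to serially diluted compounds in IMDM with 10% FBS and 0.1% DMSO for 72 hours at 37° C., 5% CO2. Viability was measured by CellTiter-Glo 2.0 luminescence, with medium-only wells as blank.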

Compound | AC50 (HTT mRNA [1]) | IC50 (HTT mRNA [1]) | AC50 (MYB mRNA [2]) | IC50 (MYB mRNA [2]) | AC50 (MYB mRNA [3]) | IC50 (MYB mRNA [3]) | IC50 (HTT mRNA [4]) | IC50 (MYB mRNA [5]) | IC50 (SMN2 mRNA) | GI50 [6]
CNC12CC(C1)N(c1ccc(C(=O)Nc3cc(F)c4nc(C)cn4c3)c3nn(C)cc13)C2 [Compound 135, N-(8-fluoro-2-methyl-imidazo[1,2-a]pyridin-6-yl)-2-methyl-4-[4-(methylamino)-2-azabicyclo[2.1.1]hexan-2-yl]-indazole-7-carboxamide] | 1 to 10 µM | 0.1 to 1 µM | 100 to 1000 nM | 100 to 1000 nM | < 100 nM | 100 to 1000 nM | 0.1 to 1 µM | 100 to 1000 nM | < 100 nM | 100 to 1000 nM
CCNC12CC(C1)N(c1ccc(C(=O)Nc3cc(F)c4nc(C)cn4c3)c3nn(C)cc13)C2 [Compound 136, 4-[4-(ethylamino)-2-azabicyclo-[2.1.1]hexan-2-yl]N-(8-fluoro-2-methylimidazo[1,2-a]pyridin-6-yl)-2-methyl-indazole-7-carboxamide] | 1 to 10 µM | 1 to 10 µM | 100 to 1000 nM | 100 to 1000 nM | 100 to 1000 nM | 100 to 1000 nM | 1 to 10 µM | 100 to 1000 nM | < 100 nM | 100 to 1000 nM
CN[C@H]1CCN(c2c(OC)cc(C(=O)Nc3cc(F)c4nc(C)cn4c3)c3nn(C)cc23)C1 [Compound 137, N-(8-fluoro-2-methyl-imidazo[1,2-a]pyridin-6-yl)-5-methoxy-2-methyl-4-[(3S)-3-(methylamino)pyrrolidin-1-yl]indazole-7-carboxamide] | > 10 µM | > 10 µM | > 10000 nM | > 10000 nM | > 10000 nM | > 10000 nM | > 10 µM | > 10000 nM | 100 to 1000 nM | 1000 to 10000 nM
CN[C@@H]1CCN(c2ccc(C(=O)Nc3cc(F)c4nn(C)cc4c3)c3nn(C)cc23)C1 [Compound 140, N-(7-fluoro-2-methyl-indazol-5-yl)-2-methyl-4-[(3R)-3-(methylamino)pyrrolidin-1-yl]indazole-7-carboxamide] | 1 to 10 µM | 1 to 10 µM | 100 to 1000 nM | 100 to 1000 nM | 100 to 1000 nM | 100 to 1000 nM | 1 to 10 µM | 100 to 1000 nM | < 100 nM | 1000 to 10000 nM
CCN[C@H]1CCN(c2cc(O)c(C(=O)Nc3cc(F)c4nc(C)cn4c3)c3nn(C)cc23)C1 [Compound 143, 4-[(3S)-3-(ethylamino)pyrrolidin-1-yl]-N-(8-fluoro-2-methyl-imidazo[1,2-a]pyridin-6-yl)-6-hydroxy-2-methyl-indazole-7-carboxamide] | 1 to 10 µM | 1 to 10 µM | < 100 nM | < 100 nM | < 100 nM | < 100 nM | 1 to 10 µM | < 100 nM | < 100 nM | 100 to 1000 nM
CCN[C@H]1CCN(c2cc(OC)c(C(=O)Nc3cc(F)c4nc(C)cn4c3)c3nn(C)cc23)C1 [Compound 146] | > 10 µM | > 10 µM | > 10000 nM | > 10000 nM | > 10000 nM | > 10000 nM | > 10 µM | > 10000 nM | 1000 to 10000 nM | > 10000 nM
Cc1cn2cc(NC(=O)c3ccc(N4CCC5NCCC5C4)c4cn(C)nc34)cc(F)c2n1 (stereo not drawn) [Compound 169, N-(8-fluoro-2-methyl-imidazo[1,2-a]-pyridin-6-yl)-2-methyl-4-(octahydro-pyrrolo[3,2-c]pyridin-5-yl)indazole-7-carboxamide 2,2,2-trifluoroacetate] | 1 to 10 µM | 1 to 10 µM | 100 to 1000 nM | 100 to 1000 nM | < 100 nM | 100 to 1000 nM | 1 to 10 µM | 100 to 1000 nM | < 100 nM | 1000 to 10000 nM
CCNC1CCN(c2cc(F)c(C(=O)Nc3cn4cc(C)nc4c(F)c3OC)c3[nH]ncc23)CC1 [Compound 173, 4-[4-(ethylamino)-1-piperidyl]-6-fluoro-N-(8-fluoro-7-methoxy-2-methyl-imidazo[1,2-a]pyridin-6-yl)-1H-indazole-7-carboxamide] | 1 to 10 µM | 1 to 10 µM | < 100 nM | < 100 nM | < 100 nM | < 100 nM | 1 to 10 µM | < 100 nM | < 100 nM | < 100 nM
CCNC1CCN(c2cc(F)c(C(=O)Nc3cc(F)c4nc(C)cn4c3)c3[nH]ncc23)CC1 [Compound 174, 4-[4-(ethylamino)-1-piperidyl]-6-fluoro-N-(8-fluoro-2-methyl-imidazo-[1,2-a]pyridin-6-yl)-1H-indazole-7-carboxamide] | 1 to 10 µM | 1 to 10 µM | 100 to 1000 nM | 100 to 1000 nM | < 100 nM | 100 to 1000 nM | 1 to 10 µM | 100 to 1000 nM | < 100 nM | 100 to 1000 nM
